The numbers were not newly measured in PubChem BioAssay AID1259409 (Chemical Carcinogenesis Research Information System (CCRIS), 2018), which cites them from elsewhere.

For this data set, the system named is rodent chemically induced tumor inhibition, incidence and multiplicity. The data set can be described thus: CCRIS tumor inhibitor studies.

Consider `CCCOC(=O)c1cc(O)c(O)c(O)c1`, for which the “tumour outcome (control, treated, inhibition, significance)” value runs as follows: (Carcinogen: 1,2-DIMETHYLHYDRAZINE, 540-73-8, Dose [Inhibitor]: 0, 1% IN DIET BEGINNING 1 WK POST LAST CARCINOGEN DOSE AND CONTINUING FOR 36 WK (STUDY DURATION: 40 WK), Route [Inhibitor]: ORAL, Species: RAT, Strain/Sex: F344/MALE, Target Tissue: Type of Lesion: COLON: ADENOMA, Dose [Carcinogen]: 20 MG/KG 1/WK FOR 4 WK, Promoter: NONE USED) 1/20 (5%), 5/20 (25%), -400%, not calculated; (Carcinogen: 1,2-DIMETHYLHYDRAZINE, 540-73-8, Dose [Inhibitor]: 0, 1% IN DIET BEGINNING 1 WK POST LAST CARCINOGEN DOSE AND CONTINUING FOR 36 WK (STUDY DURATION: 40 WK), Route [Inhibitor]: ORAL, Species: RAT, Strain/Sex: F344/MALE, Target Tissue: Type of Lesion: COLON: CARCINOMA, Dose [Carcinogen]: 20 MG/KG 1/WK FOR 4 WK, Promoter: NONE USED) 6/20 (30%), 6/20 (30%), 0%; (Carcinogen: 7,12-DIMETHYLBENZ(A)ANTHRACENE, 57-97-6, Dose [Inhibitor]: 0.3% IN HIGH SATURATED FAT DIET (STUDY DURATION: 32 WK), Route [Inhibitor]: ORAL, Species: RAT, Strain/Sex: SPRAGUE-DAWLEY/FEMALE, Target Tissue: Type of Lesion: MAMMARY GLAND: PARENCHYMAL CARCINOMA, Dose [Carcinogen]: 10 MG IN 1 ML CORN OIL ONCE AT 50 D OF AGE, Promoter: NONE USED) 20/30 (67%), 8/30 (27%), 60%, not calculated; (Carcinogen: 7,12-DIMETHYLBENZ[A]ANTHRACENE, 57-97-6, Dose [Inhibitor]: 0, 20 UMOL IN 0.4 ML ACETONE 20 MIN PRIOR TO EACH PROMOTER DOSE (STUDY DURATION: 47 WK), Route [Inhibitor]: DERMAL, Species: MOUSE, Strain/Sex: CF-1/FEMALE, Target Tissue: Type of Lesion: SKIN: CARCINOMA, Dose [Carcinogen]: 100 NMOL IN 0.2 ML ACETONE ONCE) 67%, 8%, 88%, not calculated; (Carcinogen: 7,12-DIMETHYLBENZ[A]ANTHRACENE, 57-97-6, Dose [Inhibitor]: 0, 20 UMOL IN 0.4 ML ACETONE 20 MIN PRIOR TO EACH PROMOTER DOSE (STUDY DURATION: 47 WK), Route [Inhibitor]: DERMAL, Species: MOUSE, Strain/Sex: CF-1/FEMALE, Target Tissue: Type of Lesion: SKIN: PAPILLOMA, Dose [Carcinogen]: 100 NMOL IN 0.2 ML ACETONE ONCE) 94%, 66%, 30%, not calculated; (Carcinogen: 7,12-DIMETHYLBENZ[A]ANTHRACENE, 57-97-6, Dose [Inhibitor]: 0.3% IN HIGH POLYUNSATURATED FAT DIET (STUDY DURATION: 32 WK), Route [Inhibitor]: ORAL, Species: RAT, Strain/Sex: SPRAGUE-DAWLEY/FEMALE, Target Tissue: Type of Lesion: MAMMARY GLAND: PARENCHYMAL CARCINOMA, Dose [Carcinogen]: 10 MG IN 1 ML CORN OIL ONCE AT 50 D OF AGE, 1X, Promoter: NONE USED) 30/30 (100%), 23/30 (77%), 23%, not calculated. Besides, the “tumour outcome (control, treated, inhibition, significance)” value (Carcinogen: 7,12-DIMETHYLBENZ[A]ANTHRACENE, 57-97-6, Dose [Inhibitor]: 0.3% IN HIGH POLYUNSATURATED FAT DIET DAILY STARTING 29 D BEFORE CARCINOGEN TREATMENT AND CONTINUING FOR THE DURATION OF, Route [Inhibitor]: ORAL, Species: RAT, Strain/Sex: SPRAGUE-DAWLEY/FEMALE, Target Tissue: Type of Lesion: MAMMARY GLAND: ADENOCARCINOMA, Dose [Carcinogen]: 10 MG IN 1 ML STRIPPED CORN OIL ONCE AT AGE 50 D, Promoter: NONE USED) is reported as 100%, 70%, 30%, not calculated; the “tumour outcome (control, treated, inhibition, significance)” value (Carcinogen: 7,12-DIMETHYLBENZ[A]ANTHRACENE, 57-97-6, Dose [Inhibitor]: 0.3% IN HIGH SATURATED FAT DIET DAILY STARTING 29 D BEFORE CARCINOGEN TREATMENT AND CONTINUING FOR THE DURATION OF THE S, Route [Inhibitor]: ORAL, Species: RAT, Strain/Sex: SPRAGUE-DAWLEY/FEMALE, Target Tissue: Type of Lesion: MAMMARY GLAND: ADENOCARCINOMA, Dose [Carcinogen]: 10 MG IN 1 ML STRIPPED CORN OIL ONCE AT AGE 50 D, Promoter: NONE USED) is 65%, 35%, 46%, not calculated; the “tumour outcome (control, treated, inhibition, significance)” value (Carcinogen: 7,12-DIMETHYLBENZ[A]ANTHRACENE, 57-97-6, Dose [Inhibitor]: 0.3% IN LOW FAT DIET (STUDY DURATION: 32 WK), Route [Inhibitor]: ORAL, Species: RAT, Strain/Sex: SPRAGUE-DAWLEY/FEMALE, Target Tissue: Type of Lesion: MAMMARY GLAND: PARENCHYMAL CARCINOMA, Dose [Carcinogen]: 10 MG IN 1 ML CORN OIL ONCE AT 50 D OF AGE, Promoter: NONE USED) is given as 7/30 (23%), 4/30 (13%), 43%, not calculated; the “tumour outcome (control, treated, inhibition, significance)” value (Carcinogen: 7,12-DIMETHYLBENZ[A]ANTHRACENE, 57-97-6, Dose [Inhibitor]: 0.3% IN LOW FAT DIET DAILY STARTING 29 D BEFORE CARCINOGEN TREATMENT AND CONTINUING FOR THE DURATION OF THE STUDY (STUDY, Route [Inhibitor]: ORAL, Species: RAT, Strain/Sex: SPRAGUE-DAWLEY/FEMALE, Target Tissue: Type of Lesion: MAMMARY GLAND: ADENOCARCINOMA, Dose [Carcinogen]: 10 MG IN 1 ML STRIPPED CORN OIL ONCE AT AGE 50 D, Promoter: NONE USED) is listed as 35%, 15%, 57%, not calculated; the “tumour outcome (control, treated, inhibition, significance)” value (Carcinogen: 7,12-DIMETHYLBENZ[A]ANTHRACENE, 57-97-6, Dose [Inhibitor]: 1.0% IN POWDERED DIET BEGINNING 1 WK POST CARCINOGEN DOSE FOR 51 WK (STUDY DURATION: 52 WK), Route [Inhibitor]: ORAL, Species: RAT, Strain/Sex: SPRAGUE-DAWLEY/FEMALE, Target Tissue: Type of Lesion: EAR DUCT: BENIGN TUMOR, Dose [Carcinogen]: 2.5 MG/100 G BW IN 0.5 ML SESAME OIL ONCE, Promoter: NONE USED) was 7/19 (37%), 3/20 (15%), 59%, not calculated; the “tumour outcome (control, treated, inhibition, significance)” value (Carcinogen: 7,12-DIMETHYLBENZ[A]ANTHRACENE, 57-97-6, Dose [Inhibitor]: 1.0% IN POWDERED DIET BEGINNING 1 WK POST CARCINOGEN DOSE FOR 51 WK (STUDY DURATION: 52 WK), Route [Inhibitor]: ORAL, Species: RAT, Strain/Sex: SPRAGUE-DAWLEY/FEMALE, Target Tissue: Type of Lesion: MAMMARY GLAND: CARCINOMA, Dose [Carcinogen]: 2.5 MG/100 G BW IN 0.5 ML SESAME OIL ONCE, Promoter: NONE USED) was 6/19 (32%), 1/20 (5%), 84%, p<0.05. Moreover, the “tumour outcome (control, treated, inhibition, significance)” value (Carcinogen: 7,12-DIMETHYLBENZ[A]ANTHRACENE, 57-97-6, Dose [Inhibitor]: 1.0% IN POWDERED DIET BEGINNING 1 WK POST CARCINOGEN DOSE FOR 51 WK (STUDY DURATION: 52 WK), Route [Inhibitor]: ORAL, Species: RAT, Strain/Sex: SPRAGUE-DAWLEY/FEMALE, Target Tissue: Type of Lesion: MAMMARY GLAND: FIBROADENOMA, Dose [Carcinogen]: 2.5 MG/100 G BW IN 0.5 ML SESAME OIL ONCE, Promoter: NONE USED) is recorded as 15/19 (79%), 4/20 (20%), 75%, p<0.001.

In the case of `CN(C(=O)c1c(O)c2ccccc2n(C)c1=O)c1ccccc1`, the “tumour outcome (control, treated, inhibition, significance)” value (Carcinogen: N-METHYL-N-NITROSOUREA, 684-93-5, Dose [Inhibitor]: 0, 25 MG/KG/D IN DRINKING WATER FOR 12 MO BEGINNING 1 WK POST CARCINOGEN DOSE (STUDY DURATION: 12 MO), Route [Inhibitor]: ORAL, Species: RAT, Strain/Sex: LOBUND WISTAR/MALE, Target Tissue: Type of Lesion: SEMINAL VESICLE/PROSTATE: TUMOR, Dose [Carcinogen]: 30 MG/KG ONCE AT 90 D OF AGE, Promoter: TESTOSTERONE PROPIONATE, 57-85-2) was 90%, 40%, 56%, not calculated.

With `CC(C)NCC(O)COc1cccc2ccccc12` (stereo not drawn), the “tumour outcome (control, treated, inhibition, significance)” value reads like this: (Carcinogen: 4-(METHYLNITROSAMINO)-1-(3-PYRIDYL)-1-BUTANONE [64091-91-4], Dose [Inhibitor]: 3 MG/KG BW 3X/WK FOR 20 WK IMMEDIATELY PRIOR TO EACH CARCINOGEN DOSE (STUDY DURATION: 52 WK), Route [Inhibitor]: SUBCUTANEOUS, Species: HAMSTER, Strain/Sex: SYRIAN/MALE, Target Tissue: Type of Lesion: LUNG: TUMOR, Dose [Carcinogen]: 10 MG/KG BW 3X/WK FOR 20 WK (STUDY DURATION: 52 WK), Promoter: NONE) 12/15 (80.0%), 6/15 (40%), 50%, not calculated; (Carcinogen: 4-(METHYLNITROSAMINO)-1-(3-PYRIDYL)-1-BUTANONE [64091-91-4], Dose [Inhibitor]: 3 MG/KG BW 3X/WK FOR 20 WK IMMEDIATELY PRIOR TO EACH CARCINOGEN DOSE (STUDY DURATION: 52 WK), Route [Inhibitor]: SUBCUTANEOUS, Species: HAMSTER, Strain/Sex: SYRIAN/MALE, Target Tissue: Type of Lesion: NASAL CAVITY: TUMOR, Dose [Carcinogen]: 10 MG/KG BW 3X/WK FOR 20 WK (STUDY DURATION: 52 WK), Promoter: NONE) 4/15 (26.7%), 4/15 (26.7%), 0%, not calculated; (Carcinogen: N-METHYL-N'-NITRO-N-NITROSOGUANIDINE, 70-25-7, Dose [Inhibitor]: 0, 5 MG/KG IN OLIVE OIL SUSPENSION 1/D BEGINNING 1 WK POST LAST CARCINOGEN DOSE AND CONTINUING FOR DURATION OF STUDY (ST, Species: RAT, Strain/Sex: WISTAR/MALE, Target Tissue: Type of Lesion: GLANDULAR STOMACH: ADENOCARCINOMA, Dose [Carcinogen]: 50 UG/ML IN DRINKING WATER FOR 25 WK, Promoter: NONE USED) 15/18 (83%), 11/20 (55%), 34%, not calculated. Besides, under “Carcinogen: 4-(Methylnitrosamino)-1-(3-pyridyl)-1-butanone, Dose [Inhibitor]: 0.3 mg/100 g bw, 5 x a wk from offspring age of 4 wks-8 mo., Route [Inhibitor]: Subcutaneous injection, Species: Hamster, Strain/Sex: Syrian golden, male and female offspring, Target Tissue: Type of Lesion: Pancreas: Tumor (in offspring), Dose [Carcinogen]: 50 mg/kg once to dams on day 15 of pregnancy, Promoter: Ethanol”, the outcome is recorded as 66.6%, 8.3%.
